Reference: ChEMBL document CHEMBL3880383, “2-oxo-1-pyrrolidine derivative and its pharmaceutical uses” (2004)

What was measured:
[1] = target: Synaptic vesicle glycoprotein 2A (Rattus norvegicus, UniProt Q02563); assay: Displacement of [3H]-2-[4-(3-azidophenyl)-2-oxo-1-pyrrolidinyl]butanamide from SV2A levetiracetam binding site in Sprague-Dawley rat cerebral cortex membranes after 120 mins by liquid scintillation counting method; design: species or system Membrane
Mus musculus = assay: Anticonvulsant activity in ip dosed sound susceptible DBA mouse model assessed as protection against audiogenic seizure-induced wild running, clonic and tonic convulsion administered 60 mins prior to induction of audiogenic seizures measured for 30 secs; type: functional
[2] = Mus musculus, DBA, ip, read-out: ED50

Chain of Synaptic vesicle glycoprotein 2A (Q02563 whole entry): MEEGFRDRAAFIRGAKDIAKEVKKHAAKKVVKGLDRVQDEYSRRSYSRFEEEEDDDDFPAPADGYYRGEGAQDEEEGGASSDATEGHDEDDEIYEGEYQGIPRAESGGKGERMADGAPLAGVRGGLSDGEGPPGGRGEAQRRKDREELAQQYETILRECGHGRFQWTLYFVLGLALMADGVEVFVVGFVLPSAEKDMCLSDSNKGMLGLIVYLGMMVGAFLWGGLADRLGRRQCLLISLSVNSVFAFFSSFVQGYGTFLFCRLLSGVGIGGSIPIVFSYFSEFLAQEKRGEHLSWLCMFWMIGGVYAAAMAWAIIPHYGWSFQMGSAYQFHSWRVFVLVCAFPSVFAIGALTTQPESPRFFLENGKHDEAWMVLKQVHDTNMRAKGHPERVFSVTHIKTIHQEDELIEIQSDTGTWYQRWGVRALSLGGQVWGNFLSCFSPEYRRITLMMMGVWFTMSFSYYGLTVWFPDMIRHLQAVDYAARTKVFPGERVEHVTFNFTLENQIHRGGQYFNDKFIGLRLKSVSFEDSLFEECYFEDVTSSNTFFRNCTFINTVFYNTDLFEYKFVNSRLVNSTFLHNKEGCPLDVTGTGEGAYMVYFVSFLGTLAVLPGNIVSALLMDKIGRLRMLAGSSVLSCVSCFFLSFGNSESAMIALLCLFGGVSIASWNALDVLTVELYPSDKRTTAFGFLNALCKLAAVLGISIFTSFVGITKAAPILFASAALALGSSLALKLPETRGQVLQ

Structure (SMILES) | Ki [1] [nM] | ED50 (Mus musculus; [2]) [µmol/kg] | ED50 (Mus musculus) [µmol/kg]
CC[C@@H](C(N)=O)N1CC(CC2CC2)CC1=O (stereo partly drawn) | ≤ 1000 | 100 | –
CCCC1(C)CC(=O)N([C@@H](CC)C(N)=O)C1 (stereo partly drawn) | ≤ 1000 | 100 | –
CCC[C@H]1CC(=O)N([C@@H](CC)C(N)=O)C1 | ≤ 1000 | 100 | –
CCCCCC1CC(=O)N(C(CC)C(N)=O)C1 (stereo not drawn) | ≤ 1000 | – | –
CCC1CC(=O)N([C@@H](CC)C(N)=O)C1 (stereo partly drawn) | ≤ 1000 | 100 | –
CC[C@@H](C(N)=O)N1C[C@H](CI)CC1=O | ≤ 1000 | 100 | –
CC[C@@H](C(N)=O)N1CC(CC(C)(C)C)CC1=O (stereo partly drawn) | ≤ 1000 | – | –
CCCCC1CC(=O)N(C(CC)C(N)=O)C1 (stereo not drawn) | ≤ 1000 | 100 | –
CCC(C(N)=O)N1CC(C=C(F)F)CC1=O (stereo not drawn) | ≤ 1000 | 100 | –
CC[C@@H](C(N)=O)N1CC(CN=C=S)CC1=O (stereo partly drawn) | ≤ 1000 | – | –
CC[C@@H](C(N)=O)N1CC(CCc2ccccc2)CC1=O (stereo partly drawn) | ≤ 1000 | – | –
CCC(C(N)=O)N1CC(c2ccco2)CC1=O (stereo not drawn) | ≤ 1000 | 100 | –
CC[C@@H](C(N)=O)N1CC(Cn2cnnn2)CC1=O (stereo partly drawn) | ≤ 1000 | 100 | –
CCC(C(N)=O)N1CC(c2cccnc2)CC1=O (stereo not drawn) | ≤ 1000 | 100 | –
CC[C@@H](C(N)=O)N1CC(n2cccc2)CC1=O (stereo partly drawn) | ≤ 1000 | 100 | –
CC[C@@H](C(N)=O)N1CC(c2cccc(N=[N+]=[N-])c2)CC1=O (stereo partly drawn) | ≤ 1000 | 100 | –
CCC(C(N)=O)N1CC(C=C(C)C)CC1=O (stereo not drawn) | ≤ 1000 | 100 | –
CC[C@@H](C(N)=O)N1CC(n2cccc2Br)CC1=O (stereo partly drawn) | ≤ 1000 | 100 | –
CC[C@@H](C(N)=O)N1CC(c2ccccc2)CC1=O (stereo partly drawn) | ≤ 1000 | 100 | –
CC[C@@H](C(N)=O)N1CC(CC(C)=O)CC1=O (stereo partly drawn) | ≤ 1000 | 100 | –
CC[C@@H](C(N)=O)N1C[C@@H](C=C(F)F)CC1=O | ≤ 1000 | 100 | –

Structure (SMILES) | Ki [1] [nM] | ED50 (Mus musculus; [2]) [µmol/kg] | ED50 (Mus musculus) [µmol/kg]
C=CC1CC(=O)N(C(CC)C(N)=O)C1 (stereo not drawn) | ≤ 1000 | 100 | –
CCC(C(N)=O)N1CC(CI)CC1=O (stereo not drawn) | ≤ 1000 | – | –
CC[C@@H](C(N)=O)N1CC(C#CBr)CC1=O (stereo partly drawn) | ≤ 1000 | 100 | –
CCC(C(N)=O)N1C[C@H](CC(C)(F)F)CC1=O (stereo partly drawn) | ≤ 1000 | 100 | –
CC[C@@H](C(N)=O)N1CC(c2ccsc2)CC1=O (stereo partly drawn) | ≤ 1000 | 100 | –
CCC(C(N)=O)N1CC(CC2CC2)CC1=O (stereo not drawn) | ≤ 1000 | 100 | –
CCC(C(N)=O)N1CC(CC(C)C)CC1=O (stereo not drawn) | ≤ 1000 | 100 | –
CCC(C(N)=O)N1CC(c2ccc(Cl)cc2)CC1=O (stereo not drawn) | ≤ 1000 | – | –
CCC[C@@H](C(N)=O)N1C[C@H](CI)CC1=O | ≤ 1000 | 100 | –
CC[C@@H](C(N)=O)N1CC(CCC(F)(F)F)CC1=O (stereo partly drawn) | ≤ 1000 | 100 | –
CCCC1CC(=O)N(C(Cc2cscn2)C(N)=O)C1 (stereo not drawn) | ≤ 1000 | – | –
CCC(C(N)=O)N1CC(c2ccccc2F)CC1=O (stereo not drawn) | ≤ 1000 | 100 | –
CCC(C(N)=O)N1CC(c2ccc(Cl)c(Cl)c2)CC1=O (stereo not drawn) | ≤ 1000 | 100 | –
CCCC1CC(=O)N(C(CC)C(N)=O)C1 (stereo not drawn) | ≤ 1000 | 100 | –
C=C[C@@H]1CC(=O)N([C@@H](CC)C(N)=O)C1 | ≤ 1000 | 100 | –
CCC(C(N)=O)N1CC(c2cc(C(F)(F)F)cc(C(F)(F)F)c2)CC1=O (stereo not drawn) | ≤ 1000 | – | –
CCC(C(N)=O)N1CC(c2ccccc2Br)CC1=O (stereo not drawn) | ≤ 1000 | 100 | –
C#CC1CC(=O)N(C(CC)C(N)=O)C1 (stereo not drawn) | ≤ 1000 | 100 | –
C[C@@H](C(N)=O)N1C[C@H](CI)CC1=O | ≤ 1000 | 100 | –
CCC(C(N)=O)N1CC(c2cccc(C)c2)CC1=O (stereo not drawn) | ≤ 1000 | 100 | –
CCCC1CC(=O)N(C(C)C(N)=O)C1 (stereo not drawn) | ≤ 1000 | – | –

Structure (SMILES) | Ki [1] [nM] | ED50 (Mus musculus; [2]) [µmol/kg] | ED50 (Mus musculus) [µmol/kg]
CCC(C(N)=O)N1CC(CS(=O)(=O)c2ccccc2)CC1=O (stereo not drawn) | ≤ 1000 | – | –
CC[C@@H](C(N)=O)N1C[C@@H](C=C(Br)Br)CC1=O | ≤ 1000 | 100 | –
CC[C@@H](C(N)=O)N1CC(CCl)CC1=O (stereo partly drawn) | ≤ 1000 | 100 | –
CCC(C(N)=O)N1CC(c2ccc(Cl)cc2Cl)CC1=O (stereo not drawn) | ≤ 1000 | 100 | –
CC[C@@H](C(N)=O)N1CC(COS(=O)(=O)c2ccc(C)cc2)CC1=O (stereo partly drawn) | ≤ 1000 | 100 | –
CC[C@@H](C(N)=O)N1CC(CC(C)I)CC1=O (stereo partly drawn) | ≤ 1000 | 100 | –
CC[C@@H](C(N)=O)N1CC(c2cc(Br)cc(Br)c2)CC1=O (stereo partly drawn) | ≤ 1000 | 100 | –
CC[C@@H](C(N)=O)N1CC(CI)CC1=O (stereo partly drawn) | ≤ 1000 | 100 | –
CC[C@@H](C(N)=O)N1CC(CBr)CC1=O (stereo partly drawn) | ≤ 1000 | 100 | –
C=CCC1CC(=O)N([C@@H](CC)C(N)=O)C1 (stereo partly drawn) | ≤ 1000 | 100 | –
CC[C@@H](C(N)=O)N1CC(CCCc2ccccc2)CC1=O (stereo partly drawn) | ≤ 1000 | 100 | –
CCC(C(N)=O)N1CC(C#CBr)CC1=O (stereo not drawn) | ≤ 1000 | 100 | –
CC[C@@H](C(N)=O)N1CC(c2ccc(N=[N+]=[N-])cc2)CC1=O (stereo partly drawn) | ≤ 1000 | 100 | –
CC[C@@H](C(N)=O)N1CC(c2cccc(OC)c2)CC1=O (stereo partly drawn) | ≤ 1000 | – | –
CC[C@@H](C(N)=O)N1CC(c2ccccc2OC)CC1=O (stereo partly drawn) | ≤ 1000 | – | –
CCC(C(N)=O)N1CC(C=C(Br)Br)CC1=O (stereo not drawn) | ≤ 1000 | 100 | –
CCC(C(N)=O)N1CC(c2cccc(Cl)c2)CC1=O (stereo not drawn) | ≤ 1000 | 100 | –
CC[C@@H](C(N)=O)N1CC(c2ccc(-c3ccccc3)cc2)CC1=O (stereo partly drawn) | ≤ 1000 | – | –
CC[C@@H](C(N)=O)N1CC(CO[N+](=O)[O-])CC1=O (stereo partly drawn) | ≤ 1000 | 100 | –
CCC(C(N)=O)N1CC(c2ccccc2C(F)(F)F)CC1=O (stereo not drawn) | ≤ 1000 | – | –
CC[C@@H](C(N)=O)N1CC(CSC)CC1=O (stereo partly drawn) | ≤ 1000 | 100 | –

Structure (SMILES) | Ki [1] [nM] | ED50 (Mus musculus; [2]) [µmol/kg] | ED50 (Mus musculus) [µmol/kg]
CC[C@H](C(N)=O)N1CC(C=C(Cl)Cl)CC1=O (stereo partly drawn) | ≤ 1000 | 100 | –
CCC(C(N)=O)N1CC(/C=C\F)CC1=O (stereo not drawn) | ≤ 1000 | 100 | –
C=CCC(C(N)=O)N1CC(CCC)CC1=O (stereo not drawn) | ≤ 1000 | – | –
CCCC(CN[C@@H](CC)C(N)=O)CC(=O)OC(C)C (stereo partly drawn) | – | 100 | –
CCC(C(N)=O)N1CC(c2nccs2)CC1=O (stereo not drawn) | ≤ 1000 | 100 | –
CCCCOC(=O)CC(CCC)CN[C@@H](CC)C(N)=O (stereo partly drawn) | – | 100 | –
CCCC1CC(=O)N(C(CC2CC2)C(N)=O)C1 (stereo not drawn) | ≤ 1000 | – | –
CC[C@@H](C(=O)NC)N1C[C@H](CI)CC1=O | ≤ 1000 | 100 | –
CCCC1CC(=O)N(C(CCC)C(N)=O)C1 (stereo not drawn) | ≤ 1000 | – | –
CCCC(CN[C@@H](CC)C(N)=O)CC(=O)OCC (stereo partly drawn) | – | 100 | –
C=C[C@H]1CC(=O)N([C@@H](CC)C(N)=O)C1 | ≤ 1000 | 100 | –
CCCC(CN[C@@H](CC)C(N)=O)CC(=O)OCCC12CC3CC(CC(C3)C1)C2 (stereo partly drawn) | – | 100 | –
CC[C@@H](C(N)=O)N1CC(c2cccc(Br)c2)CC1=O (stereo partly drawn) | ≤ 1000 | 100 | –
CCC(C(N)=O)N1CC(CC(F)F)CC1=O (stereo not drawn) | ≤ 1000 | – | –
CC[C@@H](C(N)=O)N1C[C@H](C=C(Br)Br)CC1=O | ≤ 1000 | 100 | –
CC[C@@H](C(N)=O)N1C[C@H](CN=[N+]=[N-])CC1=O | ≤ 1000 | 100 | –
CC[C@@H](C(N)=O)N1CC(c2cccs2)CC1=O (single isomer, unassigned; diastereomer 1) | – | 100 | –
CC[C@@H](C(N)=O)N1CC(c2cccs2)CC1=O (single isomer, unassigned; diastereomer 2) | ≤ 1000 | – | 100
CCC[C@@H]1CC(=O)N([C@@H](CC)C(N)=O)C1 [BRIVARACETAM] | ≤ 1000 | 100 | –
CC[C@@H](C(N)=O)N1C[C@H](C=C(F)F)CC1=O [SELETRACETAM] | ≤ 1000 | 100 | –
